Calls of active or inactive are those of the source. The calls are words filed in the database; no cut-off is given here.
Assays:
[1] = Cytotoxicity against human ALL5 cells after 120 hrs by MTT method; type: functional, cell-based; conditions: ALL5, 120 h
HeLa = assay: Cytotoxicity against human HeLa cells up to 10 uM after 72 hrs by MTT method; type: functional, cell-based
[2] = Cell cycle arrest in human ALL5 cells assessed as accumulation at subG1 phase at 17 uM after 48 hrs by propidium iodide staining based flow cytometric analysis (reference value: 3.44 %); type: functional
[3] = Cell cycle arrest in human ALL5 cells assessed as accumulation at G1 phase at 17 uM after 48 hrs by propidium iodide staining based flow cytometric analysis (reference value: 70.5 %); type: functional
[4] = Cell cycle arrest in human ALL5 cells assessed as accumulation at S phase at 17 uM after 48 hrs by propidium iodide staining based flow cytometric analysis (reference value: 11.7 %); type: functional
[5] = Cell cycle arrest in human ALL5 cells assessed as accumulation at G2 phase at 17 uM after 48 hrs by propidium iodide staining based flow cytometric analysis (reference value: 13.6 %); type: functional
[6] = Cell cycle arrest in human ALL5 cells assessed as accumulation at subG1 phase at 17 uM after 96 hrs by propidium iodide staining based flow cytometric analysis (reference value: 3.44 %); type: functional
[7] = Cell cycle arrest in human ALL5 cells assessed as accumulation at G1 phase at 17 uM after 96 hrs by propidium iodide staining based flow cytometric analysis (reference value: 70.5 %); type: functional
[8] = Cell cycle arrest in human ALL5 cells assessed as accumulation at S phase at 17 uM after 96 hrs by propidium iodide staining based flow cytometric analysis (reference value: 11.7 %); type: functional
[9] = Cell cycle arrest in human ALL5 cells assessed as accumulation at G2 phase at 17 uM after 96 hrs by propidium iodide staining based flow cytometric analysis (reference value: 13.6 %); type: functional
[10] = Cell cycle arrest in human ALL5 cells assessed as accumulation at subG1 phase at 17 uM after 120 hrs by propidium iodide staining based flow cytometric analysis (reference value: 3.44 %); type: functional
[11] = Cell cycle arrest in human ALL5 cells assessed as accumulation at G1 phase at 17 uM after 120 hrs by propidium iodide staining based flow cytometric analysis (reference value: 70.5 %); type: functional
[12] = Cell cycle arrest in human ALL5 cells assessed as accumulation at S phase at 17 uM after 120 hrs by propidium iodide staining based flow cytometric analysis (reference value: 11.7 %); type: functional
[13] = Cell cycle arrest in human ALL5 cells assessed as accumulation at G2 phase at 17 uM after 120 hrs by propidium iodide staining based flow cytometric analysis (reference value: 13.6 %); type: functional
ALL5 = assay: Increase in p53 expression in human ALL5 cells at 17 uM after 96 hrs by Western blot analysis; type: functional, cell-based
[14] = Cell cycle arrest in human ALL5 cells assessed as accumulation at subG1 phase at 17 uM after 96 hrs in presence of CDK4/6 inhibitor palbociclib by propidium iodide staining based flow cytometric analysis (reference value: 1.47%); type: functional
[15] = Cell cycle arrest in human ALL5 cells assessed as accumulation at G1 phase at 17 uM after 96 hrs in presence of CDK4/6 inhibitor palbociclib by propidium iodide staining based flow cytometric analysis (reference value: 97.8%); type: functional
[16] = Cell cycle arrest in human ALL5 cells assessed as accumulation at S phase at 17 uM after 96 hrs in presence of CDK4/6 inhibitor palbociclib by propidium iodide staining based flow cytometric analysis (reference value: 0.07%); type: functional
[17] = Cell cycle arrest in human ALL5 cells assessed as accumulation at G2 phase at 17 uM after 96 hrs in presence of CDK4/6 inhibitor palbociclib by propidium iodide staining based flow cytometric analysis (reference value: 0.64%); type: functional
[18] = Cell cycle arrest in human ALL5 cells assessed as accumulation at subG1 phase at 1 uM after 72 hrs by propidium iodide staining based flow cytometric analysis (reference value: 0.54 %); type: functional
[19] = Cell cycle arrest in human ALL5 cells assessed as accumulation at G1 phase at 1 uM after 72 hrs by propidium iodide staining based flow cytometric analysis (reference value: 64.4%); type: functional
[20] = Cell cycle arrest in human ALL5 cells assessed as accumulation at S phase at 1 uM after 72 hrs by propidium iodide staining based flow cytometric analysis (reference value: 15.2%); type: functional
[21] = Cell cycle arrest in human ALL5 cells assessed as accumulation at G2 phase at 1 uM after 72 hrs by propidium iodide staining based flow cytometric analysis (reference value: 19.1%); type: functional

Q: Which IC50 [1] does the source give for COc1ccc(/C=C/C(=O)Oc2ccc(/C=C/c3cc(OC(=O)/C=C/c4ccc(OC)c(OC)c4)cc(OC(=O)/C=C/c4ccc(OC)c(OC)c4)c3)cc2)cc1OC here?
A: The IC50 was over 10 µM.

Q: With CC(=O)Oc1ccc(/C=C/c2cc(OC(C)=O)cc(OC(C)=O)c2)cc1 [TRIACETYLRESVERATROL] as the compound, how does the Activity (HeLa) read?
A: The Activity was “inactive”.

Q: What about the Activity [2] of the same compound?
A: Its Activity is 12.3%.

Q: And the Activity [3]?
A: The Activity was 62.5%.

Q: And the Activity [4]?
A: The Activity was 20.8%.

Q: What about the Activity [5] of the same compound?
A: Its Activity is 3.23%.

Q: And the Activity [6]?
A: The Activity was 54.6%.

Q: What about the Activity [7] of the same compound?
A: The Activity was 15.5%.

Q: What about the Activity [8] of the same compound?
A: The Activity was 16%.

Q: And the Activity [9]?
A: The Activity was 13.1%.

Q: What about the Activity [10] of the same compound?
A: The Activity was 60.9%.

Q: What about the Activity [11] of the same compound?
A: Its Activity is 18.5%.

Q: What about the Activity [12] of the same compound?
A: Its Activity is 12.5%.

Q: What about the Activity [13] of the same compound?
A: Its Activity is 7.59%.

Q: And the Activity (ALL5)?
A: Its Activity is “Active”.

Q: And the Activity [14]?
A: Its Activity is 1.33%.

Q: And the Activity [15]?
A: Its Activity is 98.1%.

Q: What about the Activity [16] of the same compound?
A: Its Activity is 0.06%.

Q: And the Activity [17]?
A: The Activity was 0.54%.

Q: What about the IC50 [1] of the same compound?
A: Its IC50 is 3.4 µM.

Q: For COc1cc(C(=O)Oc2ccc(/C=C/c3cc(OC(=O)c4cc(OC)c(OC)c(OC)c4)cc(OC(=O)c4cc(OC)c(OC)c(OC)c4)c3)cc2)cc(OC)c1OC, which IC50 [1] is on record?
A: Its IC50 is over 10 µM.

Q: For O=C(/C=C/c1ccc(O)cc1)Oc1ccc(/C=C/c2cc(OC(=O)/C=C/c3ccc(O)cc3)cc(OC(=O)/C=C/c3ccc(O)cc3)c2)cc1, which IC50 [1] is on record?
A: Its IC50 is over 10 µM.

Q: Which IC50 [1] does the source give for O=C(CCl)Oc1ccc(/C=C/c2cc(OC(=O)CCl)cc(OC(=O)CCl)c2)cc1 here?
A: The IC50 was 10 to 10.5 µM.

Q: Which IC50 [1] does the source give for O=C(Oc1ccc(/C=C/c2cc(OC(=O)c3c(Cl)cccc3Cl)cc(OC(=O)c3c(Cl)cccc3Cl)c2)cc1)c1c(Cl)cccc1Cl here?
A: Its IC50 is over 10 µM.

Q: Which Activity [18] does the source give for CC(=O)c1c(C)c2cnc(Nc3ccc(N4CCNCC4)cn3)nc2n(C2CCCC2)c1=O [PALBOCICLIB] here?
A: The Activity was 0.76%.

Q: What about the Activity [19] of the same compound?
A: The Activity was 98.1%.

Q: And the Activity [20]?
A: The Activity was 0.29%.

Q: What about the Activity [21] of the same compound?
A: The Activity was 0.8%.

Q: For O=C(/C=C/c1ccccc1)Oc1ccc(/C=C/c2cc(OC(=O)/C=C/c3ccccc3)cc(OC(=O)/C=C/c3ccccc3)c2)cc1, which IC50 [1] is on record?
A: Its IC50 is over 10 µM.

Q: Which IC50 [1] does the source give for COc1cc(/C=C/C(=O)Oc2ccc(/C=C/c3cc(OC(=O)/C=C/c4cc(OC)c(O)c(OC)c4)cc(OC(=O)/C=C/c4cc(OC)c(O)c(OC)c4)c3)cc2)cc(OC)c1O here?
A: The IC50 was over 10 µM.
